Values quoted from earlier work as cited in patent US9040513B2, “Process for preparing platinum-carbene complexes” (CENTRE NATIONAL DE LA RECHERCHE SCIENTIFIQUE, priority 2010, dated 2015).

Target: integrin αvβ3 (Homo sapiens, UniProt P05106+P06756)
Conditions: background statement

integrin αvβ3, sequence (P06756 31-889 limits assumed): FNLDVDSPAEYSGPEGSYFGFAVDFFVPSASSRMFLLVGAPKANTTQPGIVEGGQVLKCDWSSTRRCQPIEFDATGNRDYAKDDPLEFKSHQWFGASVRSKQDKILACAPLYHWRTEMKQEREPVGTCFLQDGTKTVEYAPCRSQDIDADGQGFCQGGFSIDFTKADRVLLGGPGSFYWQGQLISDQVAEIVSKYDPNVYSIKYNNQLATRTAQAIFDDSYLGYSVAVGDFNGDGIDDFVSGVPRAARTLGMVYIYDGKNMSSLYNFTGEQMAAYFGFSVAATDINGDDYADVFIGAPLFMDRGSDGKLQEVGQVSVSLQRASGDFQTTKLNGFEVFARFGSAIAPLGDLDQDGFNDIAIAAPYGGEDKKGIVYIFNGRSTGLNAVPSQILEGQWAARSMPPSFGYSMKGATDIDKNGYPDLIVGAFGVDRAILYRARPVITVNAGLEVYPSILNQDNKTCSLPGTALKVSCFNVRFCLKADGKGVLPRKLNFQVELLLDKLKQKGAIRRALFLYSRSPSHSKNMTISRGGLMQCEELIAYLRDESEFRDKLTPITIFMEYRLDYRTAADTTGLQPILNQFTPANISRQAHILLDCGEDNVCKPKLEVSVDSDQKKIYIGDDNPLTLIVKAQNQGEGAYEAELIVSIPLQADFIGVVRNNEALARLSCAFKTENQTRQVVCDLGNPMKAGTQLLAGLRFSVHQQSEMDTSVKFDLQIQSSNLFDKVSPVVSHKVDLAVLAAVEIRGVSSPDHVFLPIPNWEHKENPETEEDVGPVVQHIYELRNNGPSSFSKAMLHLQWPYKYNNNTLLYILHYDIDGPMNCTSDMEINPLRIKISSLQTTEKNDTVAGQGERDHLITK
integrin αvβ3, sequence (P06756 891-1048 partner limits assumed): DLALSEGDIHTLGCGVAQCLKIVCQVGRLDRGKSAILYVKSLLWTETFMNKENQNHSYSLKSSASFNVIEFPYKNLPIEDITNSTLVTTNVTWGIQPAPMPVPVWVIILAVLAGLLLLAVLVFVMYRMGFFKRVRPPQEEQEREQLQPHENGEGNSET
integrin αvβ3, sequence (P05106 27-788): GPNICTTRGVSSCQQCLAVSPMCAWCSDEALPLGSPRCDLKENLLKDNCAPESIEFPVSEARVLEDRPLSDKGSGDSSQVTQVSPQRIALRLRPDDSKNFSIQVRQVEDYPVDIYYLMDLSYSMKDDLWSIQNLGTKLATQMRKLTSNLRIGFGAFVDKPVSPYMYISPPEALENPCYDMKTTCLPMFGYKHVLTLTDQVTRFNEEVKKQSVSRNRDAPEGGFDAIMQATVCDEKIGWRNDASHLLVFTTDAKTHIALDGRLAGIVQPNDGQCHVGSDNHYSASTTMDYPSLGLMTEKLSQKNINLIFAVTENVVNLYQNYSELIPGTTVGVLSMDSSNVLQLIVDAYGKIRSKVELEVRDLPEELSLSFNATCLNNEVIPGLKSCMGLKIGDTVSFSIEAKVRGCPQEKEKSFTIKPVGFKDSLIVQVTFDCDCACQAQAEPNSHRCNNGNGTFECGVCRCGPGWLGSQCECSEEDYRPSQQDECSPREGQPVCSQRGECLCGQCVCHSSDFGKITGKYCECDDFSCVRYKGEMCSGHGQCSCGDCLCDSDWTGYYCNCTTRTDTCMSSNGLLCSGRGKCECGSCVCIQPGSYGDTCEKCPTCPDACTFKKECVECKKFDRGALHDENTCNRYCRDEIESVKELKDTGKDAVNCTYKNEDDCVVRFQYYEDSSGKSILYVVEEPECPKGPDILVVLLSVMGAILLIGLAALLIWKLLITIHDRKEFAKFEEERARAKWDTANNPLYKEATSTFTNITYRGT

cyclo(RGDfK)
affinity for integrin αvβ3: high affinity
